Molecular target: β1-adrenergic receptor (Homo sapiens (Human), UniProt P08588)
Assay: cAMP Gs dynamic HTRF assay, β1 expressing CHO cells
Format: cell-based
Settings: B1-AR; CHO-K1 (HitHunter); read-out: Average pEC50 [Receptor subtype: B1-AR; Cell type: CHO-K1 (HitHunter)] (converted)
Experimental: (§1) cAMP homogeneous time-resolved fluorescence (HTRF). Compound efficacy was determined using the cAMP Gs dynamic HTRF assay (Cisbio, catalog #62AM4PEC) largely following the manufacturer's instructions, also detailed below.
(§2) Compound preparation. […] Standard serial dilution curves were 10-point, 5-fold dilutions starting from a highest concentration of 10 μM. […] Assay plates were centrifuged at 500×g for 10 seconds. Compounds and IBMX were prepared at 2× final dose to compensate for addition of cells.
(§3) Cell preparation. 1× stimulation buffer, washing PBS (Dulbecco's phosphate-buffered saline, −Mg −Ca; Caisson Labs, catalog #PBL01), assay PBS (Dulbecco's phosphate-buffered saline, +Mg, +Ca; Caisson Labs, catalog #PBL02) and Versene (0.02% EDTA disodium salt solution in PBS without calcium or magnesium; Caisson Labs, catalog #EDL01) were pre-warmed to 37° C. Cells expressing beta-adrenergic receptor were washed in washing PBS to remove growth medium and then released from the surface by incubating with Versene for 5-10 minutes at 37° C. Cells were harvested using assay PBS, counted manually by hemocytometer or by an automated cell counter, pelleted by centrifugation (200×g, 5 minutes) and resuspended in 37° C. 1× stimulation buffer to a final density of 1.5×10^6 cells/mL. 5 μL of the suspended cell solution (7500 cell total) were added to all wells of the 384 well assay plate, the assay plate was covered with an Axygen® plate seal (Corning PCR-SP) and incubated in a humidified 37° C. environment supplemented with 5% CO2 for 30 minutes.
(§4) HTRF reagent addition, reading and data analysis. After 30 minutes of cell stimulation with test compound, the assay plates were centrifuged at 500×g for 10 seconds, and incubation was stopped with the addition of 5 μL cAMP-D2 acceptor, diluted 1:21 in detection and lysis buffer 2 (Cisbio 62CL2FDF) was added to all cells. Subsequently, 5 μL Anti-cAMP-Eu Donor, diluted 1:21 in detection and lysis buffer 2, was added to cells. Plates were sealed and reactions gently ‘vortexed’ at 900 rpm on a Heidolph Titramax 1000 for at least 30 minutes at room temperature. Plates were centrifuged again at 500×g for 10 seconds, and HTRF was measured using a Tecan Spark plate reader at 50 flashes per well. […] Potency estimates (EC50) were derived from the four-parameter nonlinear regression of the concentration-effect curve and an estimate of relative efficacy was determined by comparing the magnitude of the test compound HTRF signal window (min−max dose) with the signal window of the full agonist control, isoproterenol.

β1-adrenergic receptor, sequence (P08588 whole entry, species assumed): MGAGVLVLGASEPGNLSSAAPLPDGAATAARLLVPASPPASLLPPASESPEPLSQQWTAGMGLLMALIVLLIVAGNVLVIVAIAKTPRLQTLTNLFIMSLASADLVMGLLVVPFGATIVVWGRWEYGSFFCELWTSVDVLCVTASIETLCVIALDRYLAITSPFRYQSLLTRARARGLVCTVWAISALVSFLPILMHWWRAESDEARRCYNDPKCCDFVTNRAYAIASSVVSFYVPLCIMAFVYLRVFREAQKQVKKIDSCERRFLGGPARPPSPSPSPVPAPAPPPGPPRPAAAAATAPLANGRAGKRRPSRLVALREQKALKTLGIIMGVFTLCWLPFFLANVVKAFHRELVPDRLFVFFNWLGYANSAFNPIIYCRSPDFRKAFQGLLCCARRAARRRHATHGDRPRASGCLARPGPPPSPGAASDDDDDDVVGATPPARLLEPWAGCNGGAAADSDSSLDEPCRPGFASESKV

| Structure (SMILES) | EC50 |
| --- | --- |
| CC(C)(C)NC[C@H](O)c1cc(C(F)(F)F)cnc1C1=CCCC1 [Compound 03-92] | > 1000 nM |
| CC(C)(C)NC[C@H](O)c1cccc(N)n1 [Compound 03-98] | > 1000 nM |
| Cc1cc([C@H](O)CNC(C)(C)C)ccn1 [Compound 03-109] | 100 to 1000 nM |
| CC(C)(C)NC[C@H](O)c1ccnc(C#N)c1 [Compound 03-110] | > 1000 nM |
| CC(C)(C)NCC(O)c1cccnc1Cl (centres unmarked) [Compound 03-114] | 100 to 1000 nM |
| CC(C)(C)NC[C@@H](O)c1cccc(C2CCOCC2)n1 [Compound 03-122] | > 1000 nM |
| CC(C)(C)NC[C@@H](O)c1ccc(C(F)(F)F)cn1 [Compound 03-125] | 100 to 1000 nM |
| Cc1ccc([C@H](O)CNC(C)(C)C)nc1 [Compound 03-128] | > 1000 nM |
| CC(C)(C)NC[C@H](O)c1cccc(N2CCCCC2)n1 [Compound 03-137] | 100 to 1000 nM |
| Cc1ccc(-c2cccc([C@@H](O)CNC(C)(C)C)n2)cc1 [Compound 03-143] | > 1000 nM |
| CC(C)(C)NC[C@H](O)c1cccc(-c2ccc(F)cc2)n1 [Compound 03-145] | 10 to 100 nM |
| Cc1cccc(-c2cccc([C@@H](O)CNC(C)(C)C)n2)c1 [Compound 03-147] | 10 to 100 nM |
| Cc1cccc(-c2cccc([C@H](O)CNC(C)(C)C)n2)c1 [Compound 03-148] | 100 to 1000 nM |
| Cc1ccccc1-c1cccc([C@@H](O)CNC(C)(C)C)n1 [Compound 03-149] | 100 to 1000 nM |
| CN(C)c1cccc([C@H](O)CNC(C)(C)C)n1 [Compound 03-154] | > 1000 nM |
| CC(C)(C)NC[C@H](O)c1cccc(-c2ccccc2F)n1 [Compound 03-155] | 10 to 100 nM |
| CC(C)(C)NC[C@@H](O)c1cccc(-c2ccccc2F)n1 [Compound 03-156] | > 1000 nM |

Same assay, conditions: B1-AR; CHO-K cells; read-out: Average EC50 [Receptor subtype: B1-AR; Cell type: CHO-K]

| Structure (SMILES) | EC50 |
| --- | --- |
| CC(C)(C)NCC(O)c1cccnc1Cl (centres unmarked) [Compound 03-114] | 100 to 1000 nM |
| CC(C)(C)NC[C@@H](O)c1cccc(C2CCOCC2)n1 [Compound 03-122] | > 1000 nM |
| CC(C)(C)NC[C@@H](O)c1ccc(C(F)(F)F)cn1 [Compound 03-125] | 100 to 1000 nM |
| Cc1ccc([C@H](O)CNC(C)(C)C)nc1 [Compound 03-128] | > 1000 nM |
| CC(C)(C)NC[C@H](O)c1cccc(N2CCCCC2)n1 [Compound 03-137] | 100 to 1000 nM |
| Cc1ccc(-c2cccc([C@@H](O)CNC(C)(C)C)n2)cc1 [Compound 03-143] | > 1000 nM |
| CC(C)(C)NC[C@H](O)c1cccc(-c2ccc(F)cc2)n1 [Compound 03-145] | 10 to 100 nM |
| Cc1cccc(-c2cccc([C@@H](O)CNC(C)(C)C)n2)c1 [Compound 03-147] | 10 to 100 nM |
| Cc1cccc(-c2cccc([C@H](O)CNC(C)(C)C)n2)c1 [Compound 03-148] | 100 to 1000 nM |
| Cc1ccccc1-c1cccc([C@@H](O)CNC(C)(C)C)n1 [Compound 03-149] | 100 to 1000 nM |
| CN(C)c1cccc([C@H](O)CNC(C)(C)C)n1 [Compound 03-154] | > 1000 nM |
| CC(C)(C)NC[C@H](O)c1cccc(-c2ccccc2F)n1 [Compound 03-155] | 10 to 100 nM |
| CC(C)(C)NC[C@@H](O)c1cccc(-c2ccccc2F)n1 [Compound 03-156] | > 1000 nM |
| CCN(CC)c1cccc([C@H](O)CNC(C)(C)C)n1 [Compound 03-160] | 100 to 1000 nM |
| CC(C)(C)NC[C@H](O)c1ccc2cccc(C(F)(F)F)c2n1 [Compound 03-163] | < 10 nM |
| CC(C)(C)NC[C@@H](O)c1ccc2cccc(C(F)(F)F)c2n1 [Compound 03-164] | 100 to 1000 nM |
| CC(C)(C)NC[C@H](O)c1ccc2ccccc2n1 [Compound 03-165] | < 10 nM |
| CC(C)(C)NC[C@@H](O)c1ccc2ccccc2n1 [Compound 03-166] | 100 to 1000 nM |
| CC(C)(C)NC[C@@H](O)c1nc(C(F)(F)F)cc2ccccc12 [Compound 03-172] | > 1000 nM |

Molecular target: β2 adrenergic receptor (Homo sapiens (Human), UniProt P07550)
Sequence (P07550 whole entry, species assumed): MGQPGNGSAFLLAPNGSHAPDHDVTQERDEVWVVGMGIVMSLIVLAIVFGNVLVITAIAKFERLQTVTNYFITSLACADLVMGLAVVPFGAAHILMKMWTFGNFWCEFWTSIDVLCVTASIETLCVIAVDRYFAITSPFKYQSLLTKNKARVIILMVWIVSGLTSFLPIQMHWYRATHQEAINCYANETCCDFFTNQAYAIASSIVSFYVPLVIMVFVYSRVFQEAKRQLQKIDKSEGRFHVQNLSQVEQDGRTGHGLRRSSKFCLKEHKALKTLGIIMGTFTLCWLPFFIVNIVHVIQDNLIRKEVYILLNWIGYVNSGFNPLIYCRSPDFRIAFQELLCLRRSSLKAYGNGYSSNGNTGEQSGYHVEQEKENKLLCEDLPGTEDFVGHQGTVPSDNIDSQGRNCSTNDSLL
Assay: cAMP Gs dynamic HTRF assay, β2 expressing CHO cells
Format: cell-based
Settings: B2-AR; CHO-K1 (HitHunter); read-out: Average pEC50 [Receptor subtype: B2-AR; Cell type: CHO-K1 (HitHunter)] (converted)
Experimental: as §1, §2, §3, §4

| Structure (SMILES) | EC50 |
| --- | --- |
| CC(C)(C)NC[C@H](O)c1cc(C(F)(F)F)cnc1C1=CCCC1 [Compound 03-92] | > 1000 nM |
| CC(C)(C)NC[C@H](O)c1cccc(N)n1 [Compound 03-98] | > 1000 nM |
| Cc1cc([C@H](O)CNC(C)(C)C)ccn1 [Compound 03-109] | 100 to 1000 nM |
| CC(C)(C)NC[C@H](O)c1ccnc(C#N)c1 [Compound 03-110] | > 1000 nM |
| CC(C)(C)NCC(O)c1cccnc1Cl (centres unmarked) [Compound 03-114] | 10 to 100 nM |
| CC(C)(C)NC[C@@H](O)c1cccc(C2CCOCC2)n1 [Compound 03-122] | 100 to 1000 nM |
| CC(C)(C)NC[C@@H](O)c1ccc(C(F)(F)F)cn1 [Compound 03-125] | 100 to 1000 nM |
| Cc1ccc([C@H](O)CNC(C)(C)C)nc1 [Compound 03-128] | > 1000 nM |
| CC(C)(C)NC[C@H](O)c1cccc(N2CCCCC2)n1 [Compound 03-137] | < 10 nM |
| Cc1ccc(-c2cccc([C@@H](O)CNC(C)(C)C)n2)cc1 [Compound 03-143] | 100 to 1000 nM |
| CC(C)(C)NC[C@H](O)c1cccc(-c2ccc(F)cc2)n1 [Compound 03-145] | < 10 nM |
| Cc1cccc(-c2cccc([C@@H](O)CNC(C)(C)C)n2)c1 [Compound 03-147] | < 10 nM |
| Cc1cccc(-c2cccc([C@H](O)CNC(C)(C)C)n2)c1 [Compound 03-148] | 100 to 1000 nM |
| Cc1ccccc1-c1cccc([C@@H](O)CNC(C)(C)C)n1 [Compound 03-149] | < 10 nM |
| CN(C)c1cccc([C@H](O)CNC(C)(C)C)n1 [Compound 03-154] | > 1000 nM |
| CC(C)(C)NC[C@H](O)c1cccc(-c2ccccc2F)n1 [Compound 03-155] | < 10 nM |
| CC(C)(C)NC[C@@H](O)c1cccc(-c2ccccc2F)n1 [Compound 03-156] | 10 to 100 nM |
| CCN(CC)c1cccc([C@H](O)CNC(C)(C)C)n1 [Compound 03-160] | 100 to 1000 nM |

Same assay, conditions: B2-AR; CHO-K cells; read-out: Average EC50 [Receptor subtype: B2-AR; Cell type: CHO-K]

| Structure (SMILES) | EC50 |
| --- | --- |
| CC(C)(C)NCC(O)c1cccnc1Cl (centres unmarked) [Compound 03-114] | 10 to 100 nM |
| CC(C)(C)NC[C@@H](O)c1cccc(C2CCOCC2)n1 [Compound 03-122] | 100 to 1000 nM |
| CC(C)(C)NC[C@@H](O)c1ccc(C(F)(F)F)cn1 [Compound 03-125] | 100 to 1000 nM |
| Cc1ccc([C@H](O)CNC(C)(C)C)nc1 [Compound 03-128] | > 1000 nM |
| CC(C)(C)NC[C@H](O)c1cccc(N2CCCCC2)n1 [Compound 03-137] | < 10 nM |
| CC(C)(C)NC[C@H](O)c1cccc(-c2ccc(F)cc2)n1 [Compound 03-145] | < 10 nM |
| Cc1cccc(-c2cccc([C@@H](O)CNC(C)(C)C)n2)c1 [Compound 03-147] | < 10 nM |
| Cc1cccc(-c2cccc([C@H](O)CNC(C)(C)C)n2)c1 [Compound 03-148] | 100 to 1000 nM |
| Cc1ccccc1-c1cccc([C@@H](O)CNC(C)(C)C)n1 [Compound 03-149] | < 10 nM |
| CN(C)c1cccc([C@H](O)CNC(C)(C)C)n1 [Compound 03-154] | > 1000 nM |
| CC(C)(C)NC[C@H](O)c1cccc(-c2ccccc2F)n1 [Compound 03-155] | < 10 nM |
| CC(C)(C)NC[C@@H](O)c1cccc(-c2ccccc2F)n1 [Compound 03-156] | 10 to 100 nM |
| CC(C)(C)NC[C@H](O)c1ccc2cccc(C(F)(F)F)c2n1 [Compound 03-163] | < 10 nM |
| CC(C)(C)NC[C@@H](O)c1ccc2cccc(C(F)(F)F)c2n1 [Compound 03-164] | < 10 nM |
| CC(C)(C)NC[C@H](O)c1ccc2ccccc2n1 [Compound 03-165] | < 10 nM |
| CC(C)(C)NC[C@@H](O)c1ccc2ccccc2n1 [Compound 03-166] | 100 to 1000 nM |
| CC(C)(C)NC[C@@H](O)c1nc(C(F)(F)F)cc2ccccc12 [Compound 03-172] | > 1000 nM |

Source: US10947196B2, “Beta adrenergic agonist and methods of using the same” (CURASEN THERAPEUTICS, INC., priority 2019, dated 2021)
